{
  "source": "patent US11278584B2",
  "about": "“Pharmaceutical composition for preventing and treating senile dementia and preparation method thereof” (priority 2014, dated 2022)",
  "key": {"[1]": {"tested_on": "Scop induced dysmnesia model rats", "assay": "Morris water maze test, scopolamine-induced dysmnesia model rats", "type": "in vivo, SD Male rats", "conditions": "intragastric 2 weeks, compositions 11.08 g raw medicinal materials/kg, Donepezil 1.17 mg/kg", "protocol": "(§1) Animals: SD Male rats, available from Da Shuo Biological Technology Co. LTD, Chengdu City, China, were used. 2. Testing Method\n(§2) Rats were randomly divided into Normal control group, Scop Model group, Positive control group (Donepezil, 1.17 mg/kg) and Experimental group (administered with a pharmaceutical composition of Example 1 in an amount of 11.08g raw medicinal materials per kg body weight). Before experiments, rats were fed by intragastric administration for 2 weeks. The normal control group and the model group were fed the same volume of distilled water. On day 9, rats were trained in the pool of Morris 2 times per day. On day 14, rats were subjected to do Morris water Maze and jump platform testing.\n(§3) On experiment day, rats were intragastrically administered. 30 Minutes later, they were administered with scopolamine hydrobromide (HBr) by intraperitoneal injections (2 mg·kg^−1 for two days and then 1 mg·kg^−1 on day 3). 20 Minutes later, rats were subjected to Morris water Maze testing. […] Their swimming performance was tracked and recorded by a camera. The travel path, time spent and speed of movement of rats in 90 s were recorded by a computer automatically, and the swimming distance and escape latency for finding the platform were calculated. […] The first step down latency (SDL) and escape latency (the time required to escape from electric shock, EL) of rats were recorded."}, "[2]": {"tested_on": "Scop induced dysmnesia model rats", "assay": "Jump platform test, scopolamine-induced dysmnesia model rats", "type": "in vivo, SD Male rats", "conditions": "intragastric 2 weeks, compositions 11.08 g raw medicinal materials/kg, Donepezil 1.17 mg/kg", "protocol": "as §1, §2, §3"}, "[3]": {"tested_on": "Scop induced dysmnesia model mice", "assay": "Morris water maze test, scopolamine-induced dysmnesia model mice", "type": "in vivo", "conditions": "KM mice, intragastric 2 weeks, compositions 31.66 g raw medicinal materials/kg (J: high dosage), Donepezil 1.67 mg/kg", "excerpt": "Animals: KM mice, available from Da Shuo Biological Technology Co. LTD, Chengdu City, China, were used.\nBefore experiments, mice of experimental group were fed by intragastric administration of a pharmaceutical composition for 2 weeks, while the normal control group and the model group were fed the same volume of distilled water. On day 9, mice were trained in the pool of Morris, 2 times per day. On day 14, mice were subjected to Morris water Maze testing.\nOn experiment day, mice were fed by intragastric administration. 30 Minutes later, they were administered with Scop in a dosage of 3 mg·kg^−1 via intraperitoneal injection. 20 Minutes later, the mice were subjected to Morris water Maze testing. The normal control group was intraperitoneally injected with the same volume of saline. The swimming performance of mice were tracked and recorded by a camera. The travel path, time spent and speed of movement of mice in 300 s were recorded by a computer automatically. The maximum latency was set as 300 s. The recording stopped after 300 s. The escape latency and swimming distance for looking for the platform were recorded."}},
  "note": "Counter-ions that a name gives are not always drawn.",
  "data": [
    {"smiles": "COc1cc2c(cc1OC)C(=O)C(CC1CCN(Cc3ccccc3)CC1)C2", "note": "(stereo not drawn) [Positive control, Donepezil Hydrochloride]", "values": [
      {"measurement": "Escape latency", "setting": "[1]; model control 49.63", "result": 37.27, "unit": "s"},
      {"measurement": "Distance (cm)", "setting": "[1]; model control 2173.42", "result": 1647.50, "unit": "cm"},
      {"measurement": "SDL(s) (first step down latency)", "setting": "[2]; model control 16.04", "result": 28.67, "unit": "s"},
      {"measurement": "EL(s) (escape latency from electric shock)", "setting": "[2]; model control 130.63", "result": 109.17, "unit": "s"},
      {"measurement": "Escape latency", "setting": "[3]; model control 176.54", "result": 141.42, "unit": "s"},
      {"measurement": "Swimming Distance (cm)", "setting": "[3]; model control 3646.54", "result": 2738.70, "unit": "cm"}
    ]}
  ]
}
